The source made the active and inactive calls. The rule behind the calls is not given here.
Assays:
[1] = system: Mythimna separata; assay: Larvicidal activity against fourth-instar larval stage of Mythimna separata (Oriental armyworm) in compound-pretreated corn leaves assessed as mortality at 5 mg/l after 4 days; format: functional
[2] = system: Mythimna separata; assay: Larvicidal activity against fourth-instar larval stage of Mythimna separata (Oriental armyworm) in compound-pretreated corn leaves assessed as mortality at 10 mg/l after 4 days; format: functional
[3] = system: Mythimna separata; assay: Larvicidal activity against fourth-instar larval stage of Mythimna separata (Oriental armyworm) in compound-pretreated corn leaves assessed as mortality at 25 mg/l after 4 days; format: functional
[4] = system: Mythimna separata; assay: Larvicidal activity against fourth-instar larval stage of Mythimna separata (Oriental armyworm) in compound-pretreated corn leaves assessed as mortality at 50 mg/l after 4 days; format: functional
[5] = system: Aphis fabae; assay: Insecticidal activity against apterous adult stage of Aphis fabae (black bean aphids) in soybean tender shoots assessed as induction of premature, abnormal and lethal larva moult at 10 mg/l treated for 5 secs measured after 3 days by modified FAO dip test; format: functional, organism-based
[6] = system: Aphis fabae; assay: Insecticidal activity against apterous adult stage of Aphis fabae ( black bean aphids) in soybean tender shoots assessed as death rate at 200 mg/l treated for 5 secs measured after 48 hr by modified FAO dip test; format: functional
[7] = system: Mythimna separata; assay: Larvicidal activity against fourth-instar larval stage of Mythimna separata (Oriental armyworm) in compound-pretreated corn leaves assessed as mortality at 100 mg/l after 4 days; format: functional
[8] = system: Mythimna separata; assay: Larvicidal activity against fourth-instar larval stage of Mythimna separata (Oriental armyworm) in compound-pretreated corn leaves assessed as mortality at 200 mg/l after 4 days; format: functional
[9] = system: Mythimna separata; assay: Larvicidal activity against fourth-instar larval stage of Mythimna separata (Oriental armyworm) in compound-pretreated corn leaves assessed as mortality at 500 mg/l after 4 days; format: functional
[10] = system: Aphis fabae; assay: Insecticidal activity against apterous adult stage of Aphis fabae (black bean aphids) in soybean tender shoots assessed as mortality at 200 mg/l treated for 5 secs measured after 2 hr by modified FAO dip test; format: functional, organism-based

| SMILES | mortality at 5 µg/mL [1] [%] | mortality at 10 µg/mL [2] [%] | mortality at 25 µg/mL [3] [%] | mortality at 50 µg/mL [4] [%] | Activity [5] | Activity [6] [%] | mortality at 100 µg/mL [7] [%] | mortality at 200 µg/mL [8] [%] | mortality at 500 µg/mL [9] [%] | Activity [10] |
| --- | --- | --- | --- | --- | --- | --- | --- | --- | --- | --- |
| CC(C)(C)N(NC(=O)c1ccccc1)C(=O)c1ccc(Cl)cc1 | 0 | 25 | 100 | 100 | Active | 26 |  |  |  |  |
| CC(C)(C)N(C(=O)c1cccc(Cl)c1)N(SN1CCN(Cc2ccc(Cl)nc2)/C1=N/[N+](=O)[O-])C(=O)c1ccccc1 |  |  | 0 | 25 | Active | 86 | 70 | 80 | 100 | Active |
| Cc1cc(C)cc(C(=O)N(SN2CCN(Cc3ccc(Cl)nc3)/C2=N/[N+](=O)[O-])N(C(=O)c2cc(C)cc(C)c2)C(C)(C)C)c1 |  | 0 | 10 | 25 | Active | 89 | 50 | 70 | 100 | Active |
| CCc1ccc(C(=O)NN(C(=O)c2cc(C)cc(C)c2)C(C)(C)C)cc1 [TEBUFENOZIDE] | 70 | 100 |  |  | Active | 0 |  |  |  |  |
| CCc1ccc(C(=O)N(SN2CCN(Cc3ccc(Cl)nc3)/C2=N/[N+](=O)[O-])N(C(=O)c2cc(C)cc(C)c2)C(C)(C)C)cc1 | 70 | 90 | 100 | 100 | Active | 53 |  |  |  | Active |
| COc1ccccc1C(=O)N(NC(=O)c1ccccc1)C(C)(C)C | 0 | 10 | 90 | 100 | Active | 32 |  |  |  |  |
| COc1ccc(C(=O)N(NC(=O)c2ccccc2)C(C)(C)C)cc1 |  |  |  |  | Active | 0 |  | 0 | 60 |  |
| CC(C)(C)N(NC(=O)c1ccccc1)C(=O)c1ccccc1 [RH-5849] |  | 0 | 70 | 100 | Active | 0 |  |  |  |  |
| COc1ccccc1C(=O)N(N(SN1CCN(Cc2ccc(Cl)nc2)/C1=N/[N+](=O)[O-])C(=O)c1ccccc1)C(C)(C)C |  |  |  | 0 | Active | 92 | 20 | 40 | 90 | Active |
| CC(C)(C)N(NC(=O)c1ccccc1)C(=O)c1cccc(Cl)c1 |  | 0 | 45 | 95 | Active | 12 | 100 |  |  |  |
| CC(C)(C)N(C(=O)c1ccccc1)N(SN1CCN(Cc2ccc(Cl)nc2)/C1=N/[N+](=O)[O-])C(=O)c1ccccc1 |  |  |  |  | Active | 100 | 0 | 80 | 100 | Active |
| O=[N+]([O-])/N=C1\NCCN1Cc1ccc(Cl)nc1 [IMIDACLOPRID] |  | 10 | 20 | 30 |  | 100 | 60 | 100 |  | Active |
| Cc1cc(C)cc(C(=O)N(NC(=O)c2ccccc2)C(C)(C)C)c1 |  | 10 | 60 | 100 | Active | 12 |  |  |  |  |
| COc1ccccc1C(=O)N(SN1CCN(Cc2ccc(Cl)nc2)/C1=N/[N+](=O)[O-])N(C(=O)c1ccccc1OC)C(C)(C)C |  |  | 0 | 10 | Active | 91 | 40 | 70 | 80 | Active |
| Cc1cc(C)cc(C(=O)N(N(SN2CCN(Cc3ccc(Cl)nc3)/C2=N/[N+](=O)[O-])C(=O)c2ccccc2)C(C)(C)C)c1 |  |  | 0 | 10 | Active | 80 | 55 | 85 | 95 | Active |
| Cc1cc(C)cc(C(=O)NN(C(=O)c2cc(C)cc(C)c2)C(C)(C)C)c1 |  | 10 | 70 | 95 | Active | 10 |  |  |  |  |
| CC(C)(C)N(C(=O)c1ccc(Cl)cc1)N(SN1CCN(Cc2ccc(Cl)nc2)/C1=N/[N+](=O)[O-])C(=O)c1ccccc1 |  |  | 0 | 40 | Active | 87 | 70 | 80 | 100 | Active |
| COc1ccccc1C(=O)NN(C(=O)c1ccccc1OC)C(C)(C)C |  |  |  |  | Active | 0 |  | 70 | 10 |  |
| CC(C)(C)N(C(=O)c1ccccc1Cl)N(SN1CCN(Cc2ccc(Cl)nc2)/C1=N/[N+](=O)[O-])C(=O)c1ccccc1 |  | 0 | 10 | 30 | Active | 84 | 50 | 60 | 100 | Active |
| COc1ccc(C(=O)N(SN2CCN(Cc3ccc(Cl)nc3)/C2=N/[N+](=O)[O-])N(C(=O)c2ccc(OC)cc2)C(C)(C)C)cc1 |  |  |  | 0 | Active | 87 | 40 | 70 | 100 | Active |
| COc1ccc(C(=O)N(N(SN2CCN(Cc3ccc(Cl)nc3)/C2=N/[N+](=O)[O-])C(=O)c2ccccc2)C(C)(C)C)cc1 |  |  |  | 0 | Active | 95 | 20 | 70 | 80 | Active |
| COc1ccc(C(=O)NN(C(=O)c2ccc(OC)cc2)C(C)(C)C)cc1 |  |  |  | 0 | Active | 22 | 10 | 40 | 95 |  |
| CC(C)(C)N(NC(=O)c1ccccc1)C(=O)c1ccccc1Cl | 0 | 75 | 90 | 100 | Active | 18 |  |  |  |  |

From ChEMBL document CHEMBL3046396, “Synthesis and insecticidal evaluation of N-tert-butyl-N'-thio[1-(6-chloro-3-pyridylmethyl)-2-nitroiminoimidazolidine]-N,N'-diacylhydrazines” (2010)
